Source: patent US6893830B1, “Method of screening oxysterol activation of LXRα” (The Board of Regents of the University of Texas System, priority 1996, dated 2005)
Read-outs that look alike come from different tables or passages of the source.

What was measured:
LXRα = molecular target: T1, LXRα (Homo sapiens, UniProt Q13133); experiment: LXRα cotransfection assay with TK-LXREx3-LUC reporter in CV-1 cells; type: cell-based; design: expressed in transfected cells; host or cells: CV-1 monkey kidney cells; settings: for LXRα activity: 10 μM, CV-1 cotransfection assay
T1 sequence (Q13133 1-447): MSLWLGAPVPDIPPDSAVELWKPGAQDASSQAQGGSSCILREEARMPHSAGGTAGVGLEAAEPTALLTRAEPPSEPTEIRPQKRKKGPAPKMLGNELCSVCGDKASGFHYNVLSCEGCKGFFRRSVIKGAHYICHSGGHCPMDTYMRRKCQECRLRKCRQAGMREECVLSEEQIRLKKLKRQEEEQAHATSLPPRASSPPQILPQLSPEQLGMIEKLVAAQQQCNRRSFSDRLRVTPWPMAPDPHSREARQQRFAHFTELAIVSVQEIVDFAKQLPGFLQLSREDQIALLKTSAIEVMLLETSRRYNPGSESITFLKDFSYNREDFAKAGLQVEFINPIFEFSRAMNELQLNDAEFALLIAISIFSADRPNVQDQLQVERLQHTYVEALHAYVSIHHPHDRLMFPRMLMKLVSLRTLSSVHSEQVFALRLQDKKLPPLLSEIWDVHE
T1 sequence (P19793 1-462 partner): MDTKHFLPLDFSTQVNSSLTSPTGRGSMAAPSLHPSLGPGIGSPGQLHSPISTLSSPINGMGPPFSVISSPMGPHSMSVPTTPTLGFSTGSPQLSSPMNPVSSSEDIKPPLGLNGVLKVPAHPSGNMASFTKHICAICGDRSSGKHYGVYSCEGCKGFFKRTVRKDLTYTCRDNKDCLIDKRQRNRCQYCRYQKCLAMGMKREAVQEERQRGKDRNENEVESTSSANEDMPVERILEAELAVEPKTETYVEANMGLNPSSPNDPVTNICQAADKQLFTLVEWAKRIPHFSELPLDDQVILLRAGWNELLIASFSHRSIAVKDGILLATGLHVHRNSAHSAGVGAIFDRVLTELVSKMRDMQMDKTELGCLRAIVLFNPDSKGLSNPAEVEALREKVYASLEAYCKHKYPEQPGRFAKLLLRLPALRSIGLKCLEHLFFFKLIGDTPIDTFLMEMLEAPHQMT
Description: FIG. 1 Human LXRα is activated by gonad sterols. (A) Transactivation of LXRα ligand binding domain (LBD) with testis extract. CV-1 cells were cotransfected with a GAL4 responsive luciferase reporter plasmid and an expression plasmid encoding no receptor or a chimeric receptor composed of the GAL4 DNA binding domain fused to the LXRα ligand binding domain (LBD) (GAL4-LXRα)^3. After transfection, cells were treated with ethanol (ETOH) or 1% of the concentrated testis extract. (B) Transactivation of LXRα with follicular fluid meiosis activating substance (FF-MAS). CV-1 cells were cotransfected with an LXRα responsive reporter plasmid and the receptor expression plasmids for LXRα alone or with RXRα. After transfection, cells were treated with ETOH or […] FF-MAS.
FIG. 2 LXRα is activated by a specific subset of oxysterols. (A) Specificity of LXRα activators. Shown is a representative group from 70 compounds evaluated for LXRα activity (10 μM) in cotransfection assays as described in FIG. 1B. […] (B) The the structure-activity relationship of LXRα activators. Data compiled from FIG. 2A and other experiments (not shown) reveal that the position of the hydroxyl on the cholesterol backbone is a determinant of LXRα activity. […] Dose response curves for LXRα activators were generated in CV-1 cell cotransfection assays as described in FIG. 1B.
Organic extraction of breeding bull testis was performed as described^6. Briefly, 12 grams of lyophilized testis was extracted with N-heptane and lipids were concentrated by roto-evaporation. Aliquots representing 1% of this material were assayed. FF-MAS was synthesized as described^18. Transient transfections in CV-1 monkey kidney cells were performed in triplicate in 48-well plates as described^3 with media containing 5% cabosil-treated calf bovine serum.
Transfections were performed in FIG. 1A using 80 ng of TK-MH100x4-LUC reporter and 30 ng of CMX-GAL4-hLXRα expression plasmids per well; and in FIG. 1B using 50 ng of TK-LXREx3-LUC reporter and 25 ng of CMX-hLXRa alone or with 25 ng CMX-hRXRa expression plasmids per well. Candidate ligands were dissolved in ethanol and added 8 hours post-transfection. As an internal standard, 50 ng of CMX-β gal was included in all transfections. All plasmid constructs and determinations of luciferase and β-galactosidase activities have been described^3. To construct CMX-LXRα, the hLXRα cDNA insert was excised from the plasmid pXR2DRV (Willy, et al., 1995, Genes Dev. 9: 1033-1045) with Kpnl and BamHI and was ligated into the expression vector CMX. CMX-βgal was constructed by ligating the β-galactosidase gene into the expression vector CMX. Chimeric Gal4-receptor expression plasmid (CMX-GAL4-LXRα) was constructed by first ligating the GAL4 portion of pSC424 (Sadowski, I. and M. Ptashne, 1989, Nucleic Acids Res. 19: 7539-7530) into the HindIII/SacI sites of pCMX (Umesono, et al., 1991, Cell 65: 1255-1266) to create pCMX-GAL4. This vector contains the CMV promoter fused to the coding sequence for GAL4 (1-147), followed by inframe polylinker cloning sites and translational stop codons. The cDNAs encoding the ligand-binding domain (LBD) of hLXRα (amino acids 166-447) was then ligated into the polylinker to create CMX-GAL4-LXRα.
Reporter plasmids for these studies were constructed by ligating the appropriate oligonucleotides into the HindIII site of the TK-LUC vector to create TK-LXREx3-LUC, TK-MH100x4-LUC (Kang, T., et al., 1993, J. Biol Chem. 268: 9629-9635). The sense strand of the LXRE oligonucleotide used to construct the reporter plasmid TK-LXREx3-LUC was 5′agctt[…]3′ (SEQ. ID. NO. 1). All constructs were verified by sequencing. Data are presented as relative light units (RLUs) and represent the mean of triplicate assays±standard error. […]

LXRα protein = molecular target: T2, LXRα protein (Homo sapiens, UniProt Q13133); experiment: Limited protease protection assay (chymotrypsin) of [35S]-labelled Flag-LXRα; type: binding; settings: increasing concentrations of chymotrypsin, SDS-PAGE and autoradiography
T2 construct: made in house; host or cells: in vitro synthesis (cell-free translation)
T2 sequence (Q13133 1-447): T1 sequence (Q13133 1-447)
Description: FIG. 4, Protease protection of LXRα with 22(R)-hydroxycholesterol. [^35S]-labelled LXRα protein was incubated with (A) ethanol (ETOH) control or (B) 22(R)-hydroxycholesterol, subjected to protease digestion with increasing amounts of chymotrypsin, and analyzed by SDS-PAGE and autoradiography.
In vitro synthesized [^35S]-labelled Flag-LXRα protein was subjected to protease digestion with α-chymotrysin. For these studies, LXRα with a Flag epitope fused to the amino terminus was used.
The unavailability of radiolabelled LXRα activators prevents direct ligand binding analysis. To address the possibility that 22(R)-hydroxycholesterol interacts with LXRα, a limited protease protection assay was performed (FIG. 4). In this experiment, several proteolytic fragments were generated when LXRα protein was incubated with increasing concentrations of the protease, chymotrypsin. […] The presence of a specific ligand-protected ˜30 kDa fragment has also been observed during similar analyses with other nuclear receptors. Thus, these protease protection studies support the finding that 22(R)-hydroxycholesterol interacts with LXRα.

RXR/LXR heterodimer = RXR/LXR heterodimer activation, dose response in CV-1 cells with TK-LXREx3-LUC; type: cell-based, human; settings: LXRα expression plasmid, dose-dependent
Description: TK-DR-4-LUC; human vitamin D receptor (VDR)^24, TK-DR^3-LUC; human peroxisome proliferator-activated receptor-α (PPARα)^25, TK-PPREx3-LUC; human farnesol activated receptor (FXR)^11, ΔMTV-EcREx5-LUC; human estrogen receptor (ER)^26, ΔMTV-ERE-LUC; human glucocorticoid receptor (GR)^27, MTV-LUC; Drosophila ecdysone receptor (usp/EcR)^15, ΔMTV-EcREx5-LUC. Cells were treated with ETOH or 6 μM 22(R)-hydroxycholesterol. […] FIG. 3(A)-3(D) Activation of LXRα by 22(R)-hydroxycholesterol in Drosophila (SL-2) cells. […] CV-1 cells were cotransfected with TK-LXREx3-LUC reporter plasmid and expression plasmids containing the indicated receptor combinations, and then treated with the indicated ligands. […] CV-1 cells cotransfected with the LXRα expression plasmid and TK-LXREx3-LUC reporter were treated with 9-cis RA, 22(R)-hydroxycholesterol, or both, at the indicated concentrations.
In FIG. 3B. Drosophila SL-2 cells were transfected and assayed as previously described^5 in 6-well plates with […] A5C-hLXRα or A5C-hLXRα, 0.5 mg ADH-LXREx2-LUC, 0.2 mg A5C-βGAL and […] PGEM4 carrier DNA per well.
A subset of receptors that function as RXR heterodimers have the unique ability to be activated by their own ligand, the RXR ligand (i.e., 9-cis retinoic acid), or both ligands together^11,17. […]

[1] = CV-1 cell cotransfection, dose response curves, read-out: EC50 for LXRα activators

CC(C)CCC[C@@H](C)[C@H]1CC[C@H]2[C@@H]3[C@@H](O)C=C4C[C@@H](O)CC[C@]4(C)[C@H]3CC[C@]12C [7β-hydroxycholesterol]
EC50 (LXRα; [1]): 3.5 µM

CC1=C(/C=C/C(C)=C\C=C\C(C)=C\C(=O)O)C(C)(C)CCC1 [9-cis retinoic acid, reference compound]
ligand-protected 30 kDa chymotrypsin fragment of LXRα (LXRα protein): not | maximal induction (RXR/LXR heterodimer): 7 fold

CC(C)CCC[C@](C)(O)[C@H]1CC[C@H]2[C@@H]3CC=C4C[C@@H](O)CC[C@]4(C)[C@H]3CC[C@@]21C [20(S)-hydroxycholesterol]
EC50 (LXRα; [1]): 1.6 µM

CC(C)CC[C@H](O)[C@@H](C)[C@H]1CC[C@H]2[C@@H]3CC=C4C[C@@H](O)CC[C@]4(C)[C@H]3CC[C@]12C [22(S)-hydroxycholesterol]
LXRα activity (LXRα): completely inactive

CC(C)C(O)CC[C@@H](C)[C@H]1CC[C@H]2[C@@H]3CC=C4C[C@@H](O)CC[C@]4(C)[C@H]3CC[C@]12C (some centres unmarked) [24-hydroxycholesterol]
EC50 (LXRα): 1.6 µM

C[C@H](CCCC(C)(C)O)[C@H]1CC[C@H]2[C@@H]3CC=C4C[C@@H](O)CC[C@]4(C)[C@H]3CC[C@]12C [25-hydroxycholesterol]
EC50 (LXRα; [1]): 3.5 µM

CC(C)=CCC[C@@H](C)[C@H]1CC=C2C3=C(CC[C@@]21C)[C@@]1(C)CC[C@H](O)C(C)(C)[C@@H]1CC3 [FF-MAS]
EC50 (LXRα; [1]): 3.5 µM | induction of transcription by LXRα (LXRα; CV-1 cells, wild-type LXRα, TK-LXREx3-LUC, 50 mM FF-MAS vs ETOH): 5-6 fold

CC(C)CCC[C@@H](C)[C@H]1CC[C@H]2[C@@H]3CC=C4C[C@@H](O)CC[C@]4(C)[C@H]3CC[C@]12C [cholesterol]
ligand-protected 30 kDa chymotrypsin fragment of LXRα (LXRα protein): not

CC(C)=CCCC(C)=CCCC(C)=CCO [farnesol, reference compound]
LXRα activity (LXRα): no LXRα activity
